Reference: ChEMBL document CHEMBL1131045, “Indole-2-carboxamide inhibitors of human liver glycogen phosphorylase” (J Med Chem, 1998)
Where “and” joins values, the source holds several entries; their conditions need not be identical. Identical values can stand only once.

Key:
[1] = Inhibition of forskolin-stimulated glycogenolysis in SK-HEP-1 cells; format: functional, cell-based; conditions: Homo sapiens, SK-HEP1
Mus musculus [2] = experiment: Hypoglycemic responses resulting from oral dosing in diabetic ob/ob mice(inactive dose), po; format: functional
[3] = molecular target: T1, Glycogen phosphorylase, liver form (Homo sapiens, UniProt P06737); experiment: In vitro inhibitory activity against recombinant human liver glycogen phosphorylase a (rHLGPa) catalyzed release of phosphate from glucose-1-phosphate.
T1 sequence (P06737 whole entry): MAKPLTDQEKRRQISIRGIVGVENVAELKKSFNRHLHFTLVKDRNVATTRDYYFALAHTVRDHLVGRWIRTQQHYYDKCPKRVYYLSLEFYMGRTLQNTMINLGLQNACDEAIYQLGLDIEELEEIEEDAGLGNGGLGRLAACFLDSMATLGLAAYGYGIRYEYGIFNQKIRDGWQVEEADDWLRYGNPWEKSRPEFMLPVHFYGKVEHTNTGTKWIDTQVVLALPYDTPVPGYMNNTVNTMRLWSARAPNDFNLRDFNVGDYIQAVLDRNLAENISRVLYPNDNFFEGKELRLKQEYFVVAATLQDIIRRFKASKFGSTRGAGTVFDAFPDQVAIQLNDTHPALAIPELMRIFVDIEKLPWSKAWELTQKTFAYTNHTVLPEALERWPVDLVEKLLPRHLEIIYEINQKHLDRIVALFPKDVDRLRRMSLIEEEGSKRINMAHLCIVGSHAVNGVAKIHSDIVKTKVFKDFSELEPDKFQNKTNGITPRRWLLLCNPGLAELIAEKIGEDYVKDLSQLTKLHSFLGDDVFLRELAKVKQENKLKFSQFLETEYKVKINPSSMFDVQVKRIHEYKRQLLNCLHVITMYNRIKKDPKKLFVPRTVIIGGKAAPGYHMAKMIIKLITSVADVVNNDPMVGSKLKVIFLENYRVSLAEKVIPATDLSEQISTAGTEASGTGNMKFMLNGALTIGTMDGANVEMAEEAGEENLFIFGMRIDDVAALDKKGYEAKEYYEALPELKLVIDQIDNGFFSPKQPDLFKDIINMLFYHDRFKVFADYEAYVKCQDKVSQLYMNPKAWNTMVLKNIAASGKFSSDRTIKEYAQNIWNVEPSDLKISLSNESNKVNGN

Mus musculus [4] = experiment: Hypoglycemic responses resulting from oral dosing in diabetic ob/ob mice(active dose), po; format: functional
Mus musculus [5] = species on record: Mus musculus; experiment: Percent decrease in drug -treated plasma glucose concentration, relative to vehicle treated control diabetic ob/ob mice; format: functional

Row | SMILES | IC50 [1] [µM] | Dose (Mus musculus [2]) [mg/kg] | IC50 [3] [µM] | Dose (Mus musculus [4]) | Glucose (Mus musculus [5])
1 | COC(=O)[C@H](Cc1ccccc1)NC(=O)c1cc2cc(Cl)ccc2[nH]1 | > 30 | 50 | 0.14 | – | –
2 | COc1ccc2[nH]c(C(=O)N[C@@H](Cc3ccccc3)C(=O)N(C)C)cc2c1 | – | – | 4.7 | – | –
3 | CN(C)C(=O)[C@H](O)[C@H](CC1CCCCC1)NC(=O)c1cc2cc(Cl)ccc2[nH]1 | – | – | 6.5 | – | –
4 | CN(C)C(=O)[C@@H](Cc1ccccc1)NC(=O)c1cc2cc(Cl)ccc2[nH]1 | 12 | – | 0.26 | – | –
5 | CN(C)C(=O)[C@@H](O)[C@@H](Cc1ccccc1)NC(=O)c1cc2cc(Cl)ccc2[nH]1 | – | – | 1.8 | – | –
6 | O=C(N[C@@H](Cc1ccccc1)C(=O)N1CCC(O)CC1)c1cc2cc(Cl)ccc2[nH]1 | 5.1 | 10 | 0.26 | 25 mg/kg | 36%
7 | O=C(N[C@@H](Cc1ccccc1)[C@@H](O)C(=O)O)c1cc2cc(Cl)ccc2[nH]1 | > 30 | – | 0.33 | – | –
8 | CN(C)C(=O)[C@H](Cc1ccccc1)NC(=O)c1cc2cc(Br)ccc2[nH]1 | 1.4 | 50 | 0.11 | – | –
9 | CN(C)C(=O)[C@H](O)[C@H](Cc1ccccc1)NC(=O)c1cc2cc(Cl)ccc2[nH]1 | 1.5 | 15 | 0.11 | 50 mg/kg and 25 mg/kg | 40% and 32%
10 | CNC(=O)[C@H](O)[C@H](Cc1ccccc1)NC(=O)c1cc2cc(Cl)ccc2[nH]1 | > 30 | – | 0.68 | – | –
11 | CN(C)C(=O)[C@H](Cc1ccccc1)NC(=O)c1cc2ccccc2[nH]1 | 7.8 | 25 | 0.4 | 50 mg/kg | 40%
12 | O=C(N[C@@H](Cc1ccccc1)[C@@H](O)CO)c1cc2cc(Cl)ccc2[nH]1 | – | – | 6.8 | – | –
13 | COC(=O)[C@H](O)[C@H](Cc1ccccc1)NC(=O)c1cc2cc(Cl)ccc2[nH]1 | 13 | 50 | 0.21 | – | –
14 | NC(=O)[C@H](O)[C@H](Cc1ccccc1)NC(=O)c1cc2cc(Cl)ccc2[nH]1 | – | – | 1.7 | – | –
15 | CN(C)C(=O)[C@H](Cc1ccccc1)NC(=O)c1cc2cc(F)ccc2[nH]1 | 2.3 | 50 | 0.43 | – | –
16 | CN(C)C(=O)[C@H](O)[C@H](Cc1ccccc1)NC(=O)c1cc2cc(Br)ccc2[nH]1 | 3.3 | 50 | 0.097 | – | –
17 | CN(C)C(=O)[C@H](Cc1ccccc1)NC(=O)c1cc2cc(Cl)ccc2[nH]1 | 1.9 | – | 0.082 | – | –
18 | O=C(N[C@@H](Cc1ccccc1)C(=O)O)c1cc2cc(Cl)ccc2[nH]1 | > 30 | – | 1.7 | – | –
19 | CN(C)C(=O)[C@@H](O)[C@H](Cc1ccccc1)NC(=O)c1cc2cc(Cl)ccc2[nH]1 | – | 50 | 8.7 | – | –
20 | O=C(N[C@H](CO)Cc1ccccc1)c1cc2cc(Cl)ccc2[nH]1 | – | – | > 10 | – | –
21 | CN(C)C(=O)[C@H](O)[C@@H](Cc1ccccc1)NC(=O)c1cc2cc(Cl)ccc2[nH]1 | – | – | 1.7 | – | –
22 | CNC(=O)[C@@H](Cc1ccccc1)NC(=O)c1cc2cc(Cl)ccc2[nH]1 | 12 | 25 | 0.22 | 50 mg/kg | 39%
23 | CNC(=O)[C@H](Cc1ccccc1)NC(=O)c1cc2cc(Cl)ccc2[nH]1 | 5.2 | 25 | 0.11 | 50 mg/kg | 49%
24 | CN(C)C(=O)[C@H](O)[C@H](Cc1ccccc1)NC(=O)c1cc2ccccc2[nH]1 | > 30 | – | 0.44 | – | –
25 | CN(C)C(=O)[C@H](O)[C@H](Cc1ccccc1)NC(=O)c1cc2cc(F)ccc2[nH]1 | 6.2 | 10 | 0.17 | 25 mg/kg | 33%
26 | O=C(N[C@@H](Cc1ccc(F)cc1)C(=O)N1CCC(O)CC1)c1cc2cc(Cl)ccc2[nH]1 | 1.9 | 5 | – | – | 44% and 45% and 26% and 24%
